Test results reported in PMC8803738, “Impact of the mouse model and molar amount of injected ligand on the tissue distribution profile of PSMA radioligands” (European Journal of Nuclear Medicine and Molecular Imaging, 2021).
Read-outs that look alike come from different tables or passages of the source.

Key:
[1] = test system: PC-3 PIP/flu or LNCaP tumor-bearing mice; assay: Biodistribution, comparison or ranges over both PC-3 PIP and LNCaP tumor mouse models; assay type: in vivo
Experimental: Male BALB/c nude mice were subcutaneously inoculated on the right shoulder with LNCaP tumor cells (5 × 10^6 cells in PBS mixed with Matrigel (20 mg/mL, BD Biosciences) at a ratio of 3 to 1 (v/v) to a total volume of 200 μL per mouse). Biodistribution and SPECT/CT imaging studies with both tumor xenograft models were performed when the tumors reached a volume of 100–300 mm^3.
[^177Lu]Lu-Ibu-DAB-PSMA (5 MBq, 100 µL) and [^177Lu]Lu-PSMA-617 (5 MBq, 100 µL) were diluted in saline containing 0.05% bovine serum albumin (BSA) to prevent adherence of the radioligands to the syringe. The radioligands were intravenously injected at a ligand amount of 0.05 nmol or 1.0 nmol per mouse. The number of mice per setting was commonly n = 3 and, in case of inconclusive results, additional mice up to a total of n = 6 were included. The mice were sacrificed at 4 h, 24 h, or 48 h post injection (p.i.) and selected tissues and organs were collected, weighed, and counted in a γ-counter (Supplementary Material). The data sets were analyzed for significance using a one-way ANOVA with Sidak’s multiple comparison post-test using the GraphPad Prism software (version 8). A p value of < 0.05 was considered statistically significant. Tumor-to-kidney and tumor-to-blood ratios were calculated for all investigated timepoints after injection of each radioligand.

[2] = test system: PC-3 PIP/flu tumor-bearing mice; conditions: PC-3 PIP model, 1.0 nmol, ref Deberle et al. [21], cited from earlier work

CC(C)Cc1ccc(C(C)C(=O)NC(CCN)C(=O)NCCCCC(NC(=O)CN2CCN(CC(=O)O)CCN(CC(=O)O)CCN(CC(=O)O)CC2)C(=O)NCC2CCC(C(=O)NC(Cc3ccc4ccccc4c3)C(=O)NCCCCC(NC(=O)NC(CCC(=O)O)C(=O)O)C(=O)O)CC2)cc1 (stereo not drawn) [[^177Lu]Lu-Ibu-DAB-PSMA, metal not drawn]
Tumor accumulation in PC-3 PIP vs LNCaP tumor xenografts ([1]; 0.05 nmol): approximately fourfold
Tumor uptake in PC-3 PIP vs LNCaP tumor xenografts ([1]; 1.0 nmol): 6 fold
Kidney retention, low vs high amount of injected ligand ([1]; 4 h p.i., 0.05 nmol vs 1.0 nmol): about fourfold
Kidney retention ([1]; 4 h p.i., high amount of injected ligand (1.0 nmol), range over both mouse models (PC-3 PIP data reproduced from earlier papers)): 16–19 % IA/g
Kidney retention ([1]; 4 h p.i., low amount of injected ligand (0.05 nmol), range over both mouse models): 58–69 % IA/g
Renal retention of activity ([1]; 24 h p.i., irrespective of the injected ligand amount, range over both mouse models): 5.5–6.8 % IA/g
Tissue distribution, Blood ([2]; 4 h p.i.): 3.7 ± 0.5 % IA/g
Tissue distribution, Bone ([2]; 4 h p.i.): 0.62 ± 0.08 % IA/g
Tissue distribution, Heart ([2]; 4 h p.i.): 1.3 ± 0.1 % IA/g
Tissue distribution, Intestines ([2]; 4 h p.i.): 0.71 ± 0.05 % IA/g
Tissue distribution, Kidneys ([2]; 4 h p.i.): 19 ± 2 % IA/g
Tissue distribution, Liver ([2]; 4 h p.i.): 1.5 ± 0.1 % IA/g
Tissue distribution, Lung ([2]; 4 h p.i.): 2.4 ± 0.3 % IA/g
Tissue distribution, Muscle ([2]; 4 h p.i.): 0.54 ± 0.09 % IA/g
Tissue distribution, PC-3 PIP tumor ([2]; 4 h p.i.): 66 ± 11 % IA/g
Tissue distribution, PC-3 flu tumor ([2]; 4 h p.i.): 1.2 ± 0.3 % IA/g
Tissue distribution, Salivary glands ([2]; 4 h p.i.): 0.86 ± 0.38 % IA/g
Tissue distribution, Spleen ([2]; 4 h p.i.): 1.1 ± 0.1 % IA/g
Tissue distribution, Stomach ([2]; 4 h p.i.): 0.62 ± 0.12 % IA/g
Tumor-to-blood ratio ([2]; 4 h p.i.): 18 ± 3
Tumor-to-kidney ratio ([2]; 4 h p.i.): 3.0 ± 0.5
Tumor-to-liver ratio ([2]; 4 h p.i.): 45 ± 8
Tissue distribution, Blood ([2]; 24 h p.i.): 0.16 ± 0.02 % IA/g
Tissue distribution, Bone ([2]; 24 h p.i.): < 0.10 % IA/g
Tissue distribution, Heart ([2]; 24 h p.i.): 0.10 ± 0.01 % IA/g
Tissue distribution, Intestines ([2]; 24 h p.i.): 0.11 ± 0.03 % IA/g
Tissue distribution, Kidneys ([2]; 24 h p.i.): 6.0 ± 0.7 % IA/g
Tissue distribution, Liver ([2]; 24 h p.i.): 0.56 ± 0.10 % IA/g
Tissue distribution, Lung ([2]; 24 h p.i.): 0.21 ± 0.03 % IA/g
Tissue distribution, Muscle ([2]; 24 h p.i.): 0.05 ± 0.01 % IA/g
Tissue distribution, PC-3 PIP tumor ([2]; 24 h p.i.): 52 ± 3 % IA/g
Tissue distribution, PC-3 flu tumor ([2]; 24 h p.i.): 0.17 ± 0.01 % IA/g
Tissue distribution, Salivary glands ([2]; 24 h p.i.): 0.56 ± 0.37 % IA/g
Tissue distribution, Spleen ([2]; 24 h p.i.): 0.32 ± 0.03 % IA/g
Tissue distribution, Stomach ([2]; 24 h p.i.): 0.18 ± 0.13 % IA/g
Tumor-to-blood ratio ([2]; 24 h p.i.): 337 ± 40
Tumor-to-kidney ratio ([2]; 24 h p.i.): 8.9 ± 1.0
Tumor-to-liver ratio ([2]; 24 h p.i.): 98 ± 21
Tissue distribution, Blood ([2]; 48 h p.i.): 0.10 ± 0.04 % IA/g
Tissue distribution, Bone ([2]; 48 h p.i.): < 0.10 % IA/g
Tissue distribution, Heart ([2]; 48 h p.i.): < 0.10 % IA/g
Tissue distribution, Intestines ([2]; 48 h p.i.): < 0.10 % IA/g
Tissue distribution, Kidneys ([2]; 48 h p.i.): 4.1 ± 0.8 % IA/g
Tissue distribution, Liver ([2]; 48 h p.i.): 0.49 ± 0.08 % IA/g
Tissue distribution, Lung ([2]; 48 h p.i.): 0.14 ± 0.04 % IA/g
Tissue distribution, Muscle ([2]; 48 h p.i.): < 0.10 % IA/g
Tissue distribution, PC-3 PIP tumor ([2]; 48 h p.i.): 36 ± 10 % IA/g
Tissue distribution, PC-3 flu tumor ([2]; 48 h p.i.): 0.15 ± 0.04 % IA/g
Tissue distribution, Salivary glands ([2]; 48 h p.i.): < 0.10 % IA/g
Tissue distribution, Spleen ([2]; 48 h p.i.): 0.26 ± 0.08 % IA/g
Tissue distribution, Stomach ([2]; 48 h p.i.): < 0.10 % IA/g
Tumor-to-blood ratio ([2]; 48 h p.i.): 364 ± 67
Tumor-to-kidney ratio ([2]; 48 h p.i.): 8.7 ± 1.8
Tumor-to-liver ratio ([2]; 48 h p.i.): 72 ± 11
